According to ChEMBL document CHEMBL1127879, “A conformationally restrained series of AT1-selective angiotensin II antagonists” (Bioorg Med Chem Lett, 1994):

These molecules were tested against T1, Angiotensin II receptor (AT-1) type-1 (Rattus norvegicus, UniProt P29089+P25095) (assay: Binding affinity against Angiotensin II receptor, type 1 using [125I]Sar-Ile8-AII in rat liver membranes).
T1 sequence (P29089 whole entry): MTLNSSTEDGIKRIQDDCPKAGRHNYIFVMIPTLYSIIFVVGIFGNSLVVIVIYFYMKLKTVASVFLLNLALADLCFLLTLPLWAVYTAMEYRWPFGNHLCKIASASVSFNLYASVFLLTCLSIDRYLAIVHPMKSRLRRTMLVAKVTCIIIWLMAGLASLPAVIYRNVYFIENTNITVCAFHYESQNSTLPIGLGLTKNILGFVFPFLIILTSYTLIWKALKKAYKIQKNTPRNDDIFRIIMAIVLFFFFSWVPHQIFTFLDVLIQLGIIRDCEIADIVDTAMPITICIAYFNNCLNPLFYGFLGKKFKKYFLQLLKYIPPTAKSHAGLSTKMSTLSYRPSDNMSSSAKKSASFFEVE
T1 sequence (P25095 whole entry): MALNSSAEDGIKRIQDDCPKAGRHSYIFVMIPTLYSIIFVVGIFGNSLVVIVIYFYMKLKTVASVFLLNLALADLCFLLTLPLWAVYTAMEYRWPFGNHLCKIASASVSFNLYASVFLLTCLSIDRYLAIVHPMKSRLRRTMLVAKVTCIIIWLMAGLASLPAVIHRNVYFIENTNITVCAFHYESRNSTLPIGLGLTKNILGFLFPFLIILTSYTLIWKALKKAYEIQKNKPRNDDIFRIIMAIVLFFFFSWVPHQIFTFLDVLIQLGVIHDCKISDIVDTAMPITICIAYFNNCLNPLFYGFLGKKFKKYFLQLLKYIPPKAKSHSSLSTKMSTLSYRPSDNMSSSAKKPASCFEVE
Format: cell membranes, Membrane

IC50 [nM] | Compound
220 | CCc1nc2c(C)cc(C)nc2n1C1CCCCc2cc(-c3ccccc3-c3nn[nH]n3)ccc21 (stereo not drawn)
120 | CCc1nc2c(C)cc(C)nc2n1C1CCCc2cc(-c3ccccc3-c3nn[nH]n3)ccc21 (stereo not drawn)
14 | CCCc1nc2c(C)cc(C)nc2n1C1CCc2cc(-c3ccccc3-c3nn[nH]n3)ccc21 (stereo not drawn)
11 | CCc1nc2c(C)cc(C)nc2n1C1CCc2cc(-c3ccccc3-c3nn[nH]n3)ccc21 (stereo not drawn)

Second part, the molecule before the results:

Compound | IC50 [nM]
CCCCc1nc2c(C)cc(C)nc2n1C1CCc2cc(-c3ccccc3-c3nn[nH]n3)ccc21 (stereo not drawn) | 30
CCc1nc2c(C)ccnc2n1C1CCc2cc(-c3ccccc3-c3nn[nH]n3)ccc21 (stereo not drawn) | 120
Cc1cc(C)c2nc(C3CC3)n(C3CCc4cc(-c5ccccc5-c5nn[nH]n5)ccc43)c2n1 (stereo not drawn) | 0.2
Cc1cc(C)c2nc(C(C)C)n(C3CCc4cc(-c5ccccc5-c5nn[nH]n5)ccc43)c2n1 (stereo not drawn) | 70
